From US11691986B2, “PTEFB inhibiting macrocyclic compounds” (Bayer Aktiengesellschaft, priority 2017, dated 2023)

Legend:
NCI-H460 cells = test: Proliferation assay, NCI-H460 (crystal violet); assay type: cell-based; conditions: Homo sapiens, 96 h; NCI-H460, 4 days; read-out: Inhibition of NCI-H460 cell proliferation IC50
Protocol: Cultivated tumour cells (HeLa, human cervical tumour cells, ATCC CCL-2; NCI-H460, human non-small cell lung carcinoma cells, ATCC HTB-177; DU 145, hormone-independent human prostate carcinoma cells, ATCC HTB-81; HeLa-MaTu-ADR, multidrug-resistant human cervical carcinoma cells, EPO-GmbH Berlin; Caco-2, human colorectal carcinoma cells, ATCC HTB-37; B16F10, mouse melanoma cells, ATCC CRL-6475) were plated at a density of 5,000 cells/well (DU145, HeLa-MaTu-ADR), 3,000 cells/well (NCI-H460, HeLa), 1,500 cells/well (Caco-2), or 1,000 cells/well (B16F10) in a 96-well multititer plate in 200 μL of their respective growth medium supplemented 10% fetal calf serum. After 24 hours, the cells of one plate (zero-point plate) were stained with crystal violet (see below), while the medium of the other plates was supplemented with the test substances in various concentrations (0 μM, as well as in the range of 0.0001-10 μM; the final concentration of the solvent dimethyl sulfoxide was adjusted to 0.1%) using a Hewlett-Packard HP D300 Digital Dispenser. The cells were incubated for 4 days in the presence of test substances. Cell proliferation was determined by staining the cells with crystal violet: the cells were fixed by adding 20 μl/measuring point of an 11% glutaric aldehyde solution for 15 minutes at room temperature. After three washing cycles of the fixed cells with water, the plates were dried at room temperature. The cells were stained by adding 100 μl/measuring point of a 0.1% crystal violet solution (pH 3.0). After three washing cycles of the stained cells with water, the plates were dried at room temperature. The dye was dissolved by adding 100 μl/measuring point of a 10% acetic acid solution. The extinction was determined by photometry at a wavelength of 595 nm. The change of cell number, in percent, was calculated by normalization of the measured values to the extinction values of the zero-point plate (=0%) and the extinction of the untreated (0 Wm) cells (=100%). The IC50 values (inhibitory concentration at 50% of maximal effect) were determined by means of a 4 parameter fit.

[1] = biological target: T1, human PTEFb (CDK9/Cyclin T1) (Homo sapiens, UniProt P50750); test: Surface Plasmon Resonance PTEFb; assay type: binding; conditions: SPR, 37° C.; for residence time: 1/koff, read-out: Target residence time; for residence time / koff: * = arithmetic mean; for Kd: * = arithmetic mean of more than one value, read-out: Equilibrium dissociation constant KD; for koff: < = below what is resolvable, read-out: Dissociation rate constant koff
T1 construct: purchased ProQinase, Freiburg, Germany
T1 sequence (P50750 whole entry): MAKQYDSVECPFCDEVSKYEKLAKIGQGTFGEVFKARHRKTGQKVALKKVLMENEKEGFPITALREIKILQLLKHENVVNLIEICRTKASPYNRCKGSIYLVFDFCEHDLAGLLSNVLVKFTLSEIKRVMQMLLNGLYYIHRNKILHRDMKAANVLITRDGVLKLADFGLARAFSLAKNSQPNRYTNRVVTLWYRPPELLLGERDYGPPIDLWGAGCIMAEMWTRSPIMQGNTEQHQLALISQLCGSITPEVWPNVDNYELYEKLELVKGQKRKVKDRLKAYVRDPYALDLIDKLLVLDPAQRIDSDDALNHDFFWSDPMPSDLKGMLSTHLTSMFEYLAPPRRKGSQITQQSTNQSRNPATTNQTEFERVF
T1 sequence (O60563 whole entry partner): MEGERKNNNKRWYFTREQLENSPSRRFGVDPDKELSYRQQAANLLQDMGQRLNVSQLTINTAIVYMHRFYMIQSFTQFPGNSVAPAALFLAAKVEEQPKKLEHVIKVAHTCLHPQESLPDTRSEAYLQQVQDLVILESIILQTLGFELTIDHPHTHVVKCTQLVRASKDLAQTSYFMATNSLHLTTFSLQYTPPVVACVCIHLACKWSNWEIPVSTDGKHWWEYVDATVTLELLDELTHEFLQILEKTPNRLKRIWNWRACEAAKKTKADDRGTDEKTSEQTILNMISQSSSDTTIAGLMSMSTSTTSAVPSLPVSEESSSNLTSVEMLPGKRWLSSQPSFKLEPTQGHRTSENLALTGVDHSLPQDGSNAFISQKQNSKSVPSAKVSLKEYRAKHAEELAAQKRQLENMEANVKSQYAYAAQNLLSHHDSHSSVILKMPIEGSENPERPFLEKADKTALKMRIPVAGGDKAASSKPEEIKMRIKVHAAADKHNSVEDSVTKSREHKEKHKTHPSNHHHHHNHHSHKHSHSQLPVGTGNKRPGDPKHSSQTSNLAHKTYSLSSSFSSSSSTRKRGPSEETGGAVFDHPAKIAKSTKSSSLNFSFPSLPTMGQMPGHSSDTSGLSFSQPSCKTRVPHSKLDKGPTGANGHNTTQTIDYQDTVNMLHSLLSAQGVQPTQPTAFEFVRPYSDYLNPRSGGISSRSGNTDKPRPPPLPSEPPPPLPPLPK
From the text: 8. Surface Plasmon Resonance PTEFb
The ability of the compounds according to the invention to bind human PTEFb may be determined using surface plasmon resonance (SPR). KD values and koff values may be measured using a Biacore® T200 instrument (GE Healthcare, Uppsala, Sweden).
For SPR measurements, recombinant human PTEFb (CDK9/Cyclin T1 recombinant human active protein kinase purchased from ProQinase, Freiburg, Germany) is immobilized using standard amine coupling (Johnsson B et al, Anal Biochem. 1991 Nov. 1; 198(2):268-77). Briefly, carboxymethylated dextran biosensor chips (CM7, GE Healthcare) are activated with N-ethyl-N′-(3-dimethylaminopropyl)-carbodiimide hydrochloride (EDC) and N-hydroxysuccinimide (NHS) according to the supplier's instructions. Human PTEFb is diluted in 1×HBS-EP+(GE Healthcare) and injected on the activated chip surface. Subsequently, a 1:1 solution of 1 M ethanolamine-HCl (GE Healthcare) and 1×HBS-EP is injected to block unreacted groups, resulting in approximately 4000 response units (RU) of immobilized protein. A reference surface is generated by treatment with NHS-EDC and ethanolamine-HCl. Compounds are dissolved in 100% dimethylsulfoxide (DMSO, Sigma-Aldrich, Germany) to a concentration of 10 mM and subsequently diluted in running buffer (1×HBS-EP+pH 7.4 [generated from HBS-EP+Buffer 10×(GE Healthcare): 0.1 M HEPES, 1.5 M NaCl, 30 mM EDTA and 0.5% v/v Surfactant P20], 1% v/v DMSO). For kinetic measurements, serial dilutions of compound (0.078 nM up to 25 nM) are injected over immobilized protein. Binding kinetics is measured at 37° C. with a flow rate of 100 μl/min in running buffer. Compound concentrations are injected for 70 s followed by a dissociation time of 1100 s. The resulting sensorgrams are double-referenced against the reference surface as well as against blank injections.
The double-referenced sensorgrams are fit to a simple reversible Langmuir 1:1 reaction mechanism as implemented in the Biacore® T200 evaluation software 2.0 (GE Healthcare). In cases were full compound dissociation has not occurred at the end of the dissociation phase, the Rmax parameter (response at saturation) is fit as local variable. In all other cases, Rmax is fit as global variable.

IC50 (NCI-H460 cells) | residence time [1] | Kd [1] | koff [1] | Structure (SMILES)
33 nM | – | – | – | CC(C)(C)OC(=O)N=S(C)(=O)Cc1cc2cc(c1)OCCCCNc1cc(ccc1F)-c1nc(ncc1F)N2 (racemic) [Example 1, (rac)-tert-butyl [{[3,20-difluoro-13-oxa-5,7,18,25-tetraazatetracyclo[17.3.1.1^2,6.1^8,12]pentacosa-1(23),2(25),3,5,8(24),9,11,19,21-nonaen-10-yl]methyl}(methyl)oxido-λ^6-sulfanylidene]carbamate]
9.2 nM | > 208 min | 0.074 nM | < 8e-05 s⁻¹ | CS(=N)(=O)Cc1cc2cc(c1)OCCCCNc1cc(ccc1F)-c1nc(ncc1F)N2 (racemic) [Example 2, (rac)-3,20-difluoro-10-[(S-methylsulfonimidoyl)methyl]-13-oxa-5,7,18,25-tetraazatetracyclo[17.3.1.1^2,6.1^8,12]pentacosa-1(23),2(25),3,5,8(24),9,11,19,21-nonaene]
– | 33 min | 0.28 nM | 0.0005 s⁻¹ | CC1CCCNc2cc(ccc2F)-c2nc(ncc2F)Nc2cc(CS(C)(=O)=O)cc(c2)O1 (racemic) [Example 8, (rac)-3,20-difluoro-14-methyl-10-[(methylsulfonyl)methyl]-13-oxa-5,7,18,25-tetraazatetracyclo[17.3.1.1^2,6.1^8,12]pentacosa-1(23),2(25),3,5,8(24),9,11,19,21-nonaene]
25 nM | 13 min | 0.38 nM | 0.0012 s⁻¹ | CS(=N)(=O)Cc1cc2cc(c1)OCCCNc1cc(ccc1F)-c1nc(ncc1F)N2 (racemic) [Example 3, (rac)-3,19-difluoro-10-[(S-methylsulfonimidoyl)methyl]-13-oxa-5,7,17,24-tetraazatetracyclo[16.3.1.1^2,6.1^8,12]tetracosa-1(22),2(24),3,5,8(23),9,11,18,20-nonaene]
